Read-outs that look alike come from different tables or passages of the source.
Assays:
mouse adult fibroblasts = assay: transcription factor-mediated conversion of mouse adult fibroblasts into Hb9::GFP+ spinal motor neurons (iMN conversion screen); type: cell-based; details: days 1-5, 6-10 or 11-15 of reprogramming, FIG. 4
Excerpt: FIGS. 1A and 1B illustrate the screens performed to identify small molecule enhancers of induced motor neuron (iMN) conversion. FIG. 1A is a schematic illustration depicting the primary screen for small molecules enhancers of iMN conversion via viral transduction with 7 transcription factors performed on fibroblasts harvested from 2 month old Hb9::GFP mice. FIG. 1B is a graphical illustration depicting the results of a secondary screen performed on the top hits identified by the primary screen depicted in FIG. 1A, pointing to two lead compounds as effective enhancers of iMN conversion.
To this end, a functional reprogramming screen was used to identify small molecules that increase the rate of transcription factor-mediated conversion of mouse adult fibroblasts into Hb9::GFP+ spinal motor neurons (FIGS. 1A and 1B). An inhibitor of Activin-like kinases 4/5/7 (FIG. 2A) and a Polo-like kinase I (PLK1) inhibitor (FIG. 2B) each increased induced motor neuron formation by 5-10-fold (FIG. 3). In combination, the chemicals increased the rate of induced motor neuron formation by 50-fold (FIG. 3).

human fibroblasts = details: FIG. 7
[1] = tested on: Hb9::GFP+ intermediates exhibiting a non-neuronal morphology; details: FIG. 6
[2] = tested on: fibroblasts transduced with Ascl1, Myt1l, and Brn2
Excerpt: To determine if Activin inhibition increases conversion into other neuronal types, fibroblasts were transduced with Ascl1, Myt1l, and Brn2, transcription factors that induce the formation of non-motor neurons, and cultured the cells with or without the Activin inhibitor.

For `CC[C@@H]1C(=O)N(C)c2cnc(Nc3ccc(C(=O)NC4CCN(C)CC4)cc3OC)nc2N1C1CCCC1` [BI 2536, 4-[[(7R)-8-cyclopentyl-7-ethyl-5-methyl-6-oxo-7H-pteridin-2-yl]amino]-3-methoxy-N-(1-methylpiperidin-4-yl)benzamide], the “effect on iMN conversion by time of administration (pulse treatments)” value (from here on “effect on iMN conversion by time”) (mouse adult fibroblasts) was “improved conversion only during days 6-10” and the “effect on iMN conversion by time” value (mouse adult fibroblasts; listed as PLK1 inhibitor) was “only active during days 6-10”.
In the case of `Cc1cccc(-c2[nH]ncc2-c2ccc3ncccc3n2)n1` [RepSox], the “effect on iMN conversion by time” value (mouse adult fibroblasts) is reported as “improved iMN conversion regardless of the time it is added to the culture medium”, the “effect on iMN conversion by time” value (mouse adult fibroblasts; listed as Activin inhibitor) is reported as “effective when administered from days 1-5, 6-10, or 11-15” and the “survival of FACS-sorted iMNs” value (FACS-sorted iMNs; SOD1G93A motor neurons, FIG. 5B) is reported as “promotes survival”. The “survival of FACS-sorted iMNs” value (FACS-sorted iMNs; wild-type (WT) motor neurons, FIG. 5A) was “promotes survival”, the “generation of patient specific human iMNs” value (human fibroblasts) was “promotes generation” and the “survival of Hb9::GFP+ intermediates” value [1] was “promotes survival”. The “induced neuron (iN) conversion” value ([2]; FIG. 9) was “enhances induced neuron (iN) conversion” and the “increase of the number of neurons generated” value ([2]; with versus without the Activin inhibitor) was 10 fold.

Reference: patent US20160115447A1, “COMPOSITIONS AND METHODS FOR IMPROVING INDUCED NEURON GENERATION” (PRESIDENT AND FELLOWS OF HARVARD COLLEGE, priority 2013, published 2016)
